Results as given in PubChem BioAssay AID1259407 (Chemical Carcinogenesis Research Information System (CCRIS), 2018).
Calls of active or inactive are those of the source. The rule behind the calls is not given here.

System: CCRIS mutagenicity, Ames/micronucleus/aberration tests
Test: CCRIS mutagenicity studies
Text: The CCRIS database contains chemical records with carcinogenicity, mutagenicity, tumor promotion, and tumor inhibition test results. It was developed by the National Cancer Institute (NCI). Data are derived from studies cited in primary journals, current awareness tools, NCI reports, and other sources. Test results have been reviewed by experts in carcinogenesis and mutagenesis.
CCRIS provides historical information from the years 1985 - 2011. It is no longer updated.
This is an archive assay for CCRIS mutagenicity studies.

[1] = Test System: AMES SALMONELLA TYPHIMURIUM, Strain/Indicator: TA97, Metabolic Activation: NONE, Method: PREINCUBATION
[2] = Test System: AMES SALMONELLA TYPHIMURIUM, Strain/Indicator: TA98, Metabolic Activation: NONE, Method: PREINCUBATION
[3] = Test System: AMES SALMONELLA TYPHIMURIUM, Strain/Indicator: TA100, Metabolic Activation: NONE, Method: PREINCUBATION
[4] = Test System: AMES SALMONELLA TYPHIMURIUM, Strain/Indicator: TA1535, Metabolic Activation: NONE, Method: PREINCUBATION
[5] = Test System: AMES SALMONELLA TYPHIMURIUM, Strain/Indicator: TA1537, Metabolic Activation: NONE, Method: PREINCUBATION

NC1=CC(=O)C(=O)c2ccccc21
mutagenic call [1]: active; positive
mutagenic call (Test System: AMES SALMONELLA TYPHIMURIUM, Strain/Indicator: TA97, Metabolic Activation: RAT, LIVER, S-9, PHENOBARBITAL AND 5,6-BENZOFLAVONE, Method: PREINCUBATION): active; positive
mutagenic call [2]: inactive; negative
mutagenic call (Test System: AMES SALMONELLA TYPHIMURIUM, Strain/Indicator: TA98, Metabolic Activation: RAT, LIVER, S-9, PHENOBARBITAL AND 5,6-BENZOFLAVONE, Method: PREINCUBATION): active; positive
mutagenic call [3]: active; positive
mutagenic call (Test System: AMES SALMONELLA TYPHIMURIUM, Strain/Indicator: TA100, Metabolic Activation: RAT, LIVER, S-9, PHENOBARBITAL AND 5,6-BENZOFLAVONE, Method: PREINCUBATION): active; positive
mutagenic call (Test System: AMES SALMONELLA TYPHIMURIUM, Strain/Indicator: TA102, Metabolic Activation: NONE, Method: PREINCUBATION): inactive; negative
mutagenic call (Test System: AMES SALMONELLA TYPHIMURIUM, Strain/Indicator: TA102, Metabolic Activation: RAT, LIVER, S-9, PHENOBARBITAL AND 5,6-BENZOFLAVONE, Method: PREINCUBATION): inactive; negative
mutagenic call (Test System: AMES SALMONELLA TYPHIMURIUM, Strain/Indicator: TA104, Metabolic Activation: NONE, Method: PREINCUBATION): active; positive
mutagenic call (Test System: AMES SALMONELLA TYPHIMURIUM, Strain/Indicator: TA104, Metabolic Activation: RAT, LIVER, S-9, PHENOBARBITAL AND 5,6-BENZOFLAVONE, Method: PREINCUBATION): active; positive
mutagenic call [4]: inactive; negative
mutagenic call (Test System: AMES SALMONELLA TYPHIMURIUM, Strain/Indicator: TA1535, Metabolic Activation: RAT, LIVER, S-9, PHENOBARBITAL AND 5,6-BENZOFLAVONE, Method: PREINCUBATION): inactive; negative
mutagenic call [5]: inactive; negative
mutagenic call (Test System: AMES SALMONELLA TYPHIMURIUM, Strain/Indicator: TA1537, Metabolic Activation: RAT, LIVER, S-9, PHENOBARBITAL AND 5,6-BENZOFLAVONE, Method: PREINCUBATION): active; positive
mutagenic call (Test System: AMES SALMONELLA TYPHIMURIUM, Strain/Indicator: TA1538, Metabolic Activation: NONE, Method: PREINCUBATION): inactive; negative
mutagenic call (Test System: AMES SALMONELLA TYPHIMURIUM, Strain/Indicator: TA1538, Metabolic Activation: RAT, LIVER, S-9, PHENOBARBITAL AND 5,6-BENZOFLAVONE, Method: PREINCUBATION): inactive; negative
mutagenic call (Test System: AMES SALMONELLA TYPHIMURIUM, Strain/Indicator: TA2637, Metabolic Activation: NONE, Method: PREINCUBATION): active; positive
mutagenic call (Test System: AMES SALMONELLA TYPHIMURIUM, Strain/Indicator: TA2637, Metabolic Activation: RAT, LIVER, S-9, PHENOBARBITAL AND 5,6-BENZOFLAVONE, Method: PREINCUBATION): active; positive

O=C1c2ccc([N+](=O)[O-])cc2C(=O)N1CCl
mutagenic call [2]: active; positive
mutagenic call (Test System: AMES SALMONELLA TYPHIMURIUM, Strain/Indicator: TA98, Metabolic Activation: RAT, LIVER, S-9, PCB, Method: PREINCUBATION): active; positive
mutagenic call [3]: active; positive
mutagenic call (Test System: AMES SALMONELLA TYPHIMURIUM, Strain/Indicator: TA100, Metabolic Activation: RAT, LIVER, S-9, PCB, Method: PREINCUBATION): active; positive

CNC(=O)ON=CC(C)(C)SC
mutagenic call (End Point: IN VIVO CHROMOSOMAL ABERRATIONS, Test System: BONE MARROW CELLS, Species: RAT, Strain/Sex: MALE, Route: ORAL (GAVAGE)): active; positive (structural and ploidy changes)
mutagenic call (End Point: IN VIVO MICRONUCLEUS, Test System: BONE MARROW POLYCHROMATIC ERYTHROCYTES, Species: RAT, Strain/Sex: MALE, Route: ORAL (GAVAGE)): active; positive
mutagenic call (Test System: AMES SALMONELLA TYPHIMURIUM, Strain/Indicator: TA97, Metabolic Activation: HAMSTER, LIVER, S-9, AROCLOR 1254 (10 OR 30%), Method: PREINCUBATION): inactive; negative
mutagenic call [1]: inactive; negative
mutagenic call (Test System: AMES SALMONELLA TYPHIMURIUM, Strain/Indicator: TA97, Metabolic Activation: RAT, LIVER, S-9, AROCLOR 1254 (10 OR 30%), Method: PREINCUBATION): inactive; negative
mutagenic call (Test System: AMES SALMONELLA TYPHIMURIUM, Strain/Indicator: TA98, Metabolic Activation: HAMSTER, LIVER, S-9, AROCLOR 1254 (10 OR 30%), Method: PREINCUBATION): inactive; negative
mutagenic call [2]: inactive; negative
mutagenic call (Test System: AMES SALMONELLA TYPHIMURIUM, Strain/Indicator: TA98, Metabolic Activation: RAT, LIVER, S-9, AROCLOR 1254 (10 OR 30%), Method: PREINCUBATION): inactive; negative
mutagenic call (Test System: AMES SALMONELLA TYPHIMURIUM, Strain/Indicator: TA100, Metabolic Activation: HAMSTER, LIVER, S-9, AROCLOR 1254 (10 OR 30%), Method: PREINCUBATION): inactive; negative
mutagenic call [3]: inactive; negative
mutagenic call (Test System: AMES SALMONELLA TYPHIMURIUM, Strain/Indicator: TA100, Metabolic Activation: RAT, LIVER, S-9, AROCLOR 1254 (10 OR 30%), Method: PREINCUBATION): inactive; negative
mutagenic call (Test System: AMES SALMONELLA TYPHIMURIUM, Strain/Indicator: TA1535, Metabolic Activation: HAMSTER, LIVER, S-9, AROCLOR 1254 (10 OR 30%), Method: PREINCUBATION): inactive; negative
mutagenic call [4]: inactive; negative
mutagenic call (Test System: AMES SALMONELLA TYPHIMURIUM, Strain/Indicator: TA1535, Metabolic Activation: RAT, LIVER, S-9, AROCLOR 1254 (10 OR 30%), Method: PREINCUBATION): inactive; negative
mutagenic call (Test System: AMES SALMONELLA TYPHIMURIUM, Strain/Indicator: TA1537, Metabolic Activation: HAMSTER, LIVER, S-9, AROCLOR 1254 (10 OR 30%), Method: PREINCUBATION): inactive; negative
mutagenic call [5]: inactive; negative
mutagenic call (Test System: AMES SALMONELLA TYPHIMURIUM, Strain/Indicator: TA1537, Metabolic Activation: RAT, LIVER, S-9, AROCLOR 1254 (10 OR 30%), Method: PREINCUBATION): inactive; negative
mutagenic call (Test System: E. COLI, Strain/Indicator: WP2 UVRA, Metabolic Activation: HAMSTER, LIVER, S-9, AROCLOR 1254, Method: STANDARD PLATE): inactive; negative
mutagenic call (Test System: E. COLI, Strain/Indicator: WP2 UVRA, Metabolic Activation: HAMSTER, LIVER, S-9, Method: STANDARD PLATE): inactive; negative
mutagenic call (Test System: E. COLI, Strain/Indicator: WP2 UVRA, Metabolic Activation: MOUSE, LIVER, S-9, AROCLOR 1254, Method: STANDARD PLATE): inactive; negative
mutagenic call (Test System: E. COLI, Strain/Indicator: WP2 UVRA, Metabolic Activation: MOUSE, LIVER, S-9, Method: STANDARD PLATE): inactive; negative
mutagenic call (Test System: E. COLI, Strain/Indicator: WP2 UVRA, Metabolic Activation: NONE, Method: STANDARD PLATE): inactive; negative
mutagenic call (Test System: E. COLI, Strain/Indicator: WP2 UVRA, Metabolic Activation: RAT, LIVER, S-9, AROCLOR 1254, Method: STANDARD PLATE): inactive; negative
mutagenic call (Test System: E. COLI, Strain/Indicator: WP2 UVRA, Metabolic Activation: RAT, LIVER, S-9, Method: STANDARD PLATE): inactive; negative
mutagenic call (Test System: MOUSE LYMPHOMA, Strain/Indicator: L5178Y (TK+/TK-), Metabolic Activation: NONE, Method: SUSPENSION/PLATE): active; positive
mutagenic call (Test System: MOUSE LYMPHOMA, Strain/Indicator: L5178Y (TK+/TK-), Metabolic Activation: RAT, LIVER, S-9, AROCLOR 1254, Method: SUSPENSION/PLATE): active; positive
mutagenic call (Test System: MOUSE LYMPHOMA, Strain/Indicator: L5178Y (TK+/TK-), Metabolic Activation: RAT, LIVER, S-9, Method: SUSPENSION/PLATE): active; positive
